We go through 17 compounds from US8993585B2, “Cyclic amine substituted pyrimidinediamines as PKC inhibitors” (Rigel Pharmaceuticals, Inc., priority 2007, dated 2015).

Usually IC50 stands for the concentration at which inhibition is half-maximal.

One assay deals with T1, PKC theta (Homo sapiens, UniProt Q04759).
T1 construct: purchased Upstate Biotechnologies, Temecula, CA 14-444
In words: PKC assay, fluorescence polarization (Example 2), PKC theta. It counts as biochemical. The note with it: 5 μM ATP. The procedure, abridged: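 Phosphorylated peptide product detected by fluorescence polarization, with EDTA quench plus peptide tracer and antibody. Reaction in 20 mM HEPES pH 7.4, 5 mM MgCl2, 0.2 mM CaCl2, 1 mM DTT, 0.02% Brij-35, phosphatidylserine and dioleoyl-sn-glycerol, with 5 μM ATP and 5 μM peptide. Started with enzyme, 20 min at room temperature.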
Background: Fluorescence polarisation rises when a labelled molecule tumbles more slowly, as on binding a larger partner.

The next assay deals with T2, PKC epsilon (Homo sapiens, UniProt Q02156).
T2 construct: purchased Upstate Biotechnologies, Temecula, CA 14-518
T2 sequence (Q02156 1-737): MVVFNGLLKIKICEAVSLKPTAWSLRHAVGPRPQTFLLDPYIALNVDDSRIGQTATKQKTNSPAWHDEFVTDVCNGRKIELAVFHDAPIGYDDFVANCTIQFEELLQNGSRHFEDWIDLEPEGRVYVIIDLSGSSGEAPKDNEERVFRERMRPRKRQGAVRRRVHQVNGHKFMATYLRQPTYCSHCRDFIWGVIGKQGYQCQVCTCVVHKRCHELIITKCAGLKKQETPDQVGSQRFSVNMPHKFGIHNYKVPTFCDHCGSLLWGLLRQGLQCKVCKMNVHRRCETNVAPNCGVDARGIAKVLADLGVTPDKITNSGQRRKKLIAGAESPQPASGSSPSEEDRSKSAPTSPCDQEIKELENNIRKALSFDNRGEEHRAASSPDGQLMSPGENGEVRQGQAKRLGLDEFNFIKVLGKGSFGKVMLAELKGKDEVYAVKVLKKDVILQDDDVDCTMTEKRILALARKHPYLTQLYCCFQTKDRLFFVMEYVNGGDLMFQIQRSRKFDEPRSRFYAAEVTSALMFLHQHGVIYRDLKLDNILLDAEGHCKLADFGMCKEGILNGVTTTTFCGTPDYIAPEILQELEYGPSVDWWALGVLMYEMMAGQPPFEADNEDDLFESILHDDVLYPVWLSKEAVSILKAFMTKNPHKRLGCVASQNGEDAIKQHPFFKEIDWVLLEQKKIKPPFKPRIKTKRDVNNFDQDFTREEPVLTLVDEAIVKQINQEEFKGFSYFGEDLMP
Briefly: PKC assay, fluorescence polarization (Example 2), PKC epsilon. It is filed as biochemical. The note with it: 5 μM ATP. As to the method: The inhibition of PKC activity was measured by monitoring the production of phosphorylated peptide by fluorescence polarization at different concentrations of the inhibitor. Reactions were carried out in 96-well plate format with a total volume of 20 μL containing 20 mM HEPES, pH 7.4, 5 mM MgCl2, 0.2 mM CaCl2, 1 mM DTT, 0.02% Brij-35, 0.1 mg/mL phosphatidylserine, 0.02 mg/mL dioleoyl-sn-glycerol and 5 μM each of ATP and the peptide substrate. Compounds were first diluted serially in DMSO and then transferred to a solution containing the above concentrations of HEPES, MgCl2, CaCl2, DTT, and Brij-35 to yield 5× compound solutions in 2% DMSO, which was then added to the reaction solution. Reactions were initiated by the addition of PKC at a typical concentration as described in Table VI, and then allowed to incubate at room temperature for 20 min. At the end of this time, a combination of quench (EDTA) and detection (peptide tracer and antibody) reagents was added using the protocol of Invitrogen P2748.

For the next assay, the system named is Human primary T cells. In words: IL-2 ELISA, Human Primary T Cell, Anti-CD3+CD28+ (Example 3). It counts as cell-based. The note with it: Homo sapiens, T-cell, 24 h, anti-CD3+CD28 stimulation. The procedure, abridged: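 Human primary T cells, 100,000 per well, were pre-incubated with compound in Yssel's medium for 1 h at 37 °C. The counter-assay used 0.5 ng/ml PMA with 0.1 uM ionomycin final.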
Background: ELISA stands for enzyme-linked immunosorbent assay.

T1 sequence (Q04759 whole entry): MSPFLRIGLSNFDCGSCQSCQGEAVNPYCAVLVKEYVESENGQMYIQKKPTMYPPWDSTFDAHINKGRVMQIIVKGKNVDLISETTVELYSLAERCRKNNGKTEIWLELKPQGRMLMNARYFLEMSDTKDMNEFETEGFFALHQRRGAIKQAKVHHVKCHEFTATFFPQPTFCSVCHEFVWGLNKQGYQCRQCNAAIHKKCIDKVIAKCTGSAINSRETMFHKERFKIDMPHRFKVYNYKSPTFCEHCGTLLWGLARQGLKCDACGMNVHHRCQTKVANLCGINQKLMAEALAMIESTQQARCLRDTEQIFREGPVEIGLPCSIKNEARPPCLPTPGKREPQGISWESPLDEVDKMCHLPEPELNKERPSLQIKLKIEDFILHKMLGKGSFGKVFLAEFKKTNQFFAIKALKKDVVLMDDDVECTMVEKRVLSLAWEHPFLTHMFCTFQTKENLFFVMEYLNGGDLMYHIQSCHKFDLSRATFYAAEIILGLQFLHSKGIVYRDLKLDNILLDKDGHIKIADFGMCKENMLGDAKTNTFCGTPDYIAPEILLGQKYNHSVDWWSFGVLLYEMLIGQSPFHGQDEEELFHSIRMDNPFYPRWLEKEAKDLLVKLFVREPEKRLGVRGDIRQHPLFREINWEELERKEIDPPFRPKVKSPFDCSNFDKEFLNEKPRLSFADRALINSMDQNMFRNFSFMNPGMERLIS

For `COc1cc(Nc2ncc(F)c(NC3CC(C)(C)N(C)C(C)(C)C3)n2)cc(-n2cnnn2)c1` [Compound I-342], the results for the half-maximal inhibitory concentration (IC50) on PKC theta, on PKC epsilon and in the assay with Human primary T cells were 0.00095 µM, 0.00157 µM and 0.0318 µM, respectively.

For `CN1C(C)(C)CC(Nc2nc(Nc3ccc(-n4cccc4)c(C#N)c3)ncc2Cl)CC1(C)C` [Compound I-167], the values for the IC50 on PKC theta, on PKC epsilon and with Human primary T cells were 0.00387 µM, 0.197 µM and 0.227 µM, respectively.

In the case of `CSc1nnnn1-c1cccc(Nc2ncc(C(N)=O)c(NC3CC(C)(C)N(C)C(C)(C)C3)n2)c1` [Compound I-456], the figures for the IC50 on PKC theta, on PKC epsilon and in the assay with Human primary T cells were 0.0063 µM, 0.049 µM and 0.35 µM, respectively.

Consider `CN1C(C)(C)CC(Nc2nc(Nc3cc(OCC(F)(F)F)cc(OCC(F)(F)F)c3)ncc2F)CC1(C)C` [Compound I-378], for which the 50% inhibitory concentration (IC50) at PKC theta stood at 0.0035 µM; on PKC epsilon it was 0.0429 µM; in the assay on Human primary T cells, 0.31 µM.

For the compound `CCOc1ccc(Nc2ncc(C#N)c(NC3CC(C)(C)N(C)C(C)(C)C3)n2)cc1-n1nnnc1CC` [Compound I-460], the IC50 at PKC theta is 0.0004 µM; at PKC epsilon, 0.06 µM; in the assay on Human primary T cells, 0.03 µM.

For `COc1cc(Nc2ncc(C#N)c(NC3CC(C)(C)N(C)C(C)(C)C3)n2)cc(-n2nnnc2C)c1` [Compound I-365], the IC50 at PKC theta was found to be 0.00062 µM; at PKC epsilon, 0.00734 µM; in the assay on Human primary T cells, 0.0566 µM.

As for `COc1ccc(Nc2ncc(C#N)c(NC3CC(C)(C)N(C)C(C)(C)C3)n2)cc1-n1c(C)ccc1C` [Compound I-376], the IC50 was 0.0004 µM at PKC theta, 0.935 µM at PKC epsilon and 0.26 µM with Human primary T cells.

In the case of `CN1CCN(c2ccc(Nc3ncc(C(F)(F)F)c(NC4CC(C)(C)N(C)C(C)(C)C4)n3)cc2C#N)CC1` [Compound I-178], the IC50 on PKC theta worked out at 0.00081 µM; at PKC epsilon it was 0.16 µM; in the assay on Human primary T cells, 0.243 µM.

As for `CN1CCN(c2ccc(Nc3ncc(C#N)c(NC4CC(C)(C)N(C)C(C)(C)C4)n3)cc2Cl)CC1` [Compound I-101], the half-inhibitory concentration (IC50) is 0.00551 µM on PKC theta, 0.131 µM at PKC epsilon and 0.0946 µM in the assay on Human primary T cells.

Take `CCN1CCN(c2ccc(Nc3ncc(F)c(NC4CC(C)(C)N(C)C(C)(C)C4)n3)cc2Cl)CC1` [Compound I-248]: the IC50 at PKC theta came out at 0.00275 µM; at PKC epsilon, 0.0134 µM; in the assay on Human primary T cells, 0.11 µM.

In the case of `CCOc1ccc(Nc2ncc(F)c(NC3CC(C)(C)NC(C)(C)C3)n2)cc1-n1nnnc1CC` [Compound I-415], the values for the IC50 on PKC theta, on PKC epsilon and with Human primary T cells were 0.0005 µM, 0.013 µM and 0.06 µM, respectively.

For the compound `CCOc1ccc(Nc2ncc(C(N)=O)c(NC3CC(C)(C)N(C)C(C)(C)C3)n2)cc1-n1nnnc1CC` [Compound I-420], the IC50 at PKC theta stood at 0.0032 µM; on PKC epsilon, 0.115 µM; in the assay on Human primary T cells it was 0.25 µM.

As for `CN1C(C)(C)CC(Nc2nc(Nc3cccc(OC(F)(F)F)c3)ncc2F)CC1(C)C` [Compound I-223], the IC50 at PKC theta came to 0.0317 µM; at PKC epsilon, 0.119 µM; with Human primary T cells, 0.184 µM.

For the compound `COc1ccc(Nc2ncc(F)c(NC3CC(C)(C)NC(C)(C)C3)n2)cc1OC(F)F` [Compound I-444], the results for the concentration for half-maximal inhibition (IC50) at PKC theta, on PKC epsilon and in the assay with Human primary T cells were 0.0011 µM, 0.157 µM and 0.18 µM, respectively.

Consider `CN1C(C)(C)CC(Nc2nc(Nc3ccc(-c4ccoc4)c(F)c3)ncc2F)CC1(C)C` [Compound I-119], for which the IC50 is 0.0553 µM on PKC theta, 0.0278 µM on PKC epsilon and 0.309 µM in the assay with Human primary T cells.

For the compound `CN1C(C)(C)CC(Nc2nc(Nc3ccc(F)c(C#N)c3)ncc2Cl)CC1(C)C` [Compound I-166], the half-inhibitory concentration (IC50) was determined as 0.00426 µM at PKC theta, 0.198 µM at PKC epsilon and 0.281 µM in the assay on Human primary T cells.

For the compound `Cc1ccc(Nc2ncc(F)c(NC3CC(C)(C)NC(C)(C)C3)n2)cc1-n1cnnn1` [Compound I-455], the IC50 was 0.0013 µM at PKC theta, 0.008 µM at PKC epsilon and 0.07 µM with Human primary T cells.
